Test results from USRE42890E1, “Furazanobenzimidazoles” (Basilea Pharmaceutica AG, priority 2003, dated 2011).
Where two headings read alike, the source gives them in different places.

What was measured:
Jurkat = assay: MTS proliferation assay, Jurkat; format: cell-based, human; conditions: 72 h incubation, read-out: MTS proliferation assay IC 50 Jurkat
In short: (§1)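 Cells seeded 24 h before treatment in RPMI-1640 with 5% or 10% FCS. Compounds added at 10, 3, 1 and 0.3 μM final and incubated 72 h at 37 °C, 7.5% CO2. MTS reagent then added for 3 h, absorbance read at 492 nm.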

Jily = assay: MTS proliferation assay, Jily; format: cell-based; conditions: 72 h incubation, read-out: MTS proliferation assay IC 50 Jily
In short: (§2)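 Cells seeded 24 h before treatment in RPMI-1640 with 5% or 10% FCS, then exposed 72 h at 37 °C, 7.5% CO2, to compound at final 10, 3, 1 and 0.3 μM. Viability by MTS, 3 h further incubation, absorbance 492 nm.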

HT1080 = assay: MTS proliferation assay, HT1080; format: cell-based, human; conditions: HT1080, 72 h incubation, read-out: MTS proliferation assay IC 50 HT1080
In short: as §1

HeLa = assay: MTS proliferation assay, HeLa; format: cell-based, human; conditions: 72 h incubation, read-out: MTS proliferation assay IC 50 HeLa
In short: as §1

MRC5 = assay: MTS proliferation assay, MRC5; format: cell-based; conditions: MRC5, 72 h incubation, read-out: MTS proliferation assay IC 50 MRC5
In short: as §2

[1] = tested on: adherent cells or suspension cells; assay: Hoechst 33342 nuclear staining (fraction of apoptotic nuclei); format: cell-based; set-up: key: 0 relating to no activity; 1 relating to weak activity comprising less than 70% of the cells; score 2 relating to strong activity comprising more than 70% of the cells

Row | SMILES | IC50 (Jurkat) [nM] | IC50 (Jily) [nM] | Hoechst 33342 nuclear staining score ([1]; H460, conc 0.01 μm) | Hoechst 33342 nuclear staining score ([1]; H460, conc 0.1 μm) | Hoechst 33342 nuclear staining score ([1]; H460, conc 1 μm) | Hoechst 33342 nuclear staining score ([1]; HeLa, conc 0.01 μm) | Hoechst 33342 nuclear staining score ([1]; HeLa, conc 0.1 μm) | Hoechst 33342 nuclear staining score ([1]; HeLa, conc 1 μm) | Hoechst 33342 nuclear staining score ([1]; Jily, conc 0.01 μm) | Hoechst 33342 nuclear staining score ([1]; Jily, conc 0.1 μm) | Hoechst 33342 nuclear staining score ([1]; Jily, conc 1 μm) | Hoechst 33342 nuclear staining score ([1]; Jurkat, conc 0.01 μm) | Hoechst 33342 nuclear staining score ([1]; Jurkat, conc 0.1 μm) | Hoechst 33342 nuclear staining score ([1]; Jurkat, conc 1 μm) | Hoechst 33342 nuclear staining score ([1]; MRC5, conc 0.01 μm) | Hoechst 33342 nuclear staining score ([1]; MRC5, conc 0.1 μm) | Hoechst 33342 nuclear staining score ([1]; MRC5, conc 1 μm) | Hoechst 33342 nuclear staining score ([1]; PBLs, conc 0.01 μm) | Hoechst 33342 nuclear staining score ([1]; PBLs, conc 0.1 μm) | Hoechst 33342 nuclear staining score ([1]; PBLs, conc 1 μm) | further results
1 | Nc1nonc1-c1nc2ccccc2n1CC(=O)/C=C/c1ccc(Cl)cc1 [Example 118] | > 1000 | > 1000 | 0 | 0 | 0 | 0 | 0 | 0 | 0 | 0 | 1 (1 relating to weak activity comprising less than 70% of the cells) | 0 | 0 | 0 | 0 | 0 | 0 | 0 | 0 | 0 | IC50 (HT1080): > 1000 nM; IC50 (HeLa): > 1000 nM; IC50 (MRC5): > 1000 nM
2 | Nc1nonc1-c1nc2ccccc2n1COc1ccc(Br)cc1 [Example 89] | 10 to 100 | 10 to 100 | 0 | 2 (score 2 relating to strong activity comprising more than 70% of the cells) | 2 (score 2 relating to strong activity comprising more than 70% of the cells) | 0 | 2 (score 2 relating to strong activity comprising more than 70% of the cells) | 2 (score 2 relating to strong activity comprising more than 70% of the cells) | 0 | 2 (score 2 relating to strong activity comprising more than 70% of the cells) | 2 (score 2 relating to strong activity comprising more than 70% of the cells) | 0 | 2 (score 2 relating to strong activity comprising more than 70% of the cells) | 2 (score 2 relating to strong activity comprising more than 70% of the cells) | 0 | 2 (score 2 relating to strong activity comprising more than 70% of the cells) | 2 (score 2 relating to strong activity comprising more than 70% of the cells) | 0 | 0 | 0 | IC50 (HT1080): 10 to 100 nM; IC50 (HeLa): 10 to 100 nM; IC50 (MRC5): 100 to 1000 nM
3 | Nc1nonc1-c1nc2ccccc2n1CC(=O)/C=C/c1ccccc1 [Example 12, E-1-[2-(4-Aminofurazan-3-yl)-benzimidazol-1-yl]-4-phenyl-but-3-en-2-one] | – | 100 to 1000 | 0 | 0 | 0 | 0 | 0 | 0 | 0 | 0 | 2 (score 2 relating to strong activity comprising more than 70% of the cells) | 0 | 0 | 2 (score 2 relating to strong activity comprising more than 70% of the cells) | 0 | 0 | 0 | 0 | 0 | 0 | IC50 (Jurkat; Homo sapiens): 100 to 1000 nM; IC50 (HT1080; Homo sapiens, HT-1080): > 1000 nM; IC50 (HeLa; Homo sapiens): > 1000 nM; IC50 (MRC5; Homo sapiens): > 1000 nM
4 | Nc1nonc1-c1nc2ccccc2n1COc1ccc(C(F)(F)F)cc1 [Example 91] | 100 to 1000 | 100 to 1000 | – | – | – | 0 | 0 | 0 | 0 | 0 | 2 (score 2 relating to strong activity comprising more than 70% of the cells) | 0 | 0 | 2 (score 2 relating to strong activity comprising more than 70% of the cells) | 0 | 0 | 0 | 0 | 0 | 0 | IC50 (HT1080): 100 to 1000 nM; IC50 (HeLa): 100 to 1000 nM; IC50 (MRC5): 100 to 1000 nM
5 | COc1cc(C(=O)Cn2c(-c3nonc3N)nc3ccccc32)ccc1O [Example 74, 4-[1-(3-Methoxy-4-hydroxyphenacyl)-1H-benzimidazol-2-yl]-furazan-3-yl-amine] | – | 100 to 1000 | 0 | 0 | 2 (score 2 relating to strong activity comprising more than 70% of the cells) | 0 | 0 | 2 (score 2 relating to strong activity comprising more than 70% of the cells) | 0 | 0 | 2 (score 2 relating to strong activity comprising more than 70% of the cells) | 0 | 0 | 2 (score 2 relating to strong activity comprising more than 70% of the cells) | 0 | 0 | 1 (1 relating to weak activity comprising less than 70% of the cells) | 0 | 0 | 0 | IC50 (Jurkat; Homo sapiens): 100 to 1000 nM; IC50 (HT1080; Homo sapiens, HT-1080): 100 to 1000 nM; IC50 (HeLa; Homo sapiens): 100 to 1000 nM; IC50 (MRC5; Homo sapiens): 100 to 1000 nM
